Experimental data as given in PubChem BioAssay AID248 (DTP/NCI, 2004).
“And” between values parts separate entries of the source, which are not always exact repeats. Equal values may be shown once. Toxic doses and inconclusive results are not listed. Cut-off read from the data, not from the text of the source: active = T/C of 150% or more; inactive = T/C below 125%.

Test system: L1210 leukemia ip in BDF1 mice, survival T/C
Experiment: NCI In Vivo Anticancer Drug Screen. Data for tumor model L1210 Leukemia (intraperitoneal) in B6D2F1 (BDF1) mice
Conditions: endpoint: mean survival time, higher = longer survival
In short: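 Antitumor effect is assessed in tumor-bearing animals. Survival in the compound arm is compared with a vehicle-dosed control arm and expressed as their quotient.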

[1] = dose: 150.0 mg/kg/injection, schedule: Q01DX Z (ip), vehicle: saline
[2] = dose: 100.0 mg/kg/injection, schedule: Q01DX009 (ip), vehicle: Klucel (hydroxypropylcellulose) (HPC)
[3] = dose: 100.0 mg/kg/injection, schedule: Q04DX003 (ip), vehicle: Klucel (hydroxypropylcellulose) (HPC)
[4] = dose: 200.0 mg/kg/injection, schedule: Q01DX009 (ip), vehicle: Klucel (hydroxypropylcellulose) (HPC)
[5] = dose: 200.0 mg/kg/injection, schedule: Q04DX003 (ip), vehicle: Klucel (hydroxypropylcellulose) (HPC)
[6] = dose: 400.0 mg/kg/injection, schedule: Q01DX009 (ip), vehicle: Klucel (hydroxypropylcellulose) (HPC)
[7] = dose: 400.0 mg/kg/injection, schedule: Q04DX003 (ip), vehicle: Klucel (hydroxypropylcellulose) (HPC)
[8] = dose: 100.0 mg/kg/injection, schedule: Q01DX001 (ip), vehicle: saline with Tween-80
[9] = dose: 100.0 mg/kg/injection, schedule: Q01DX009 (ip), vehicle: saline with Tween-80
[10] = dose: 200.0 mg/kg/injection, schedule: Q01DX001 (ip), vehicle: saline with Tween-80
[11] = dose: 200.0 mg/kg/injection, schedule: Q01DX009 (ip), vehicle: saline with Tween-80
[12] = dose: 400.0 mg/kg/injection, schedule: Q01DX001 (ip), vehicle: saline with Tween-80
[13] = dose: 400.0 mg/kg/injection, schedule: Q04DX003 (ip), vehicle: saline with Tween-80
[14] = dose: 100.0 mg/kg/injection, schedule: Q01DX001 (ip), vehicle: saline
[15] = dose: 200.0 mg/kg/injection, schedule: Q01DX001 (ip), vehicle: saline
[16] = dose: 100.0 mg/kg/injection, schedule: Q01DX009 (ip), vehicle: saline
[17] = dose: 200.0 mg/kg/injection, schedule: Q01DX009 (ip), vehicle: saline
[18] = dose: 400.0 mg/kg/injection, schedule: Q01DX009 (ip), vehicle: saline
[19] = dose: 100.0 mg/kg/injection, schedule: Q04DX003 (ip), vehicle: saline with Tween-80
[20] = dose: 200.0 mg/kg/injection, schedule: Q04DX003 (ip), vehicle: saline with Tween-80
[21] = dose: 100.0 mg/kg/injection, schedule: Q01DX001 (ip), vehicle: carboxymethylcellulose (CMC)
[22] = dose: 200.0 mg/kg/injection, schedule: Q01DX001 (ip), vehicle: carboxymethylcellulose (CMC)
[23] = dose: 400.0 mg/kg/injection, schedule: Q01DX001 (ip), vehicle: carboxymethylcellulose (CMC)

Measured: T/C

CCCCn1cnc2c(SSc3ncnc4c3ncn4CCCC)ncnc21
inactive: dose: 37.5 mg/kg/injection, schedule: Q01DX Z (ip), vehicle: saline 109 % of control | [1] 124 % of control | dose: 166.0 mg/kg/injection, schedule: Q04DX003 (ip), vehicle: gum acacia 121 % of control

O=C(/C=C/C(=O)Oc1ccccc1)Oc1ccccc1
inactive: [2] 88 % of control | [3] 107 % of control | [4] 91 % of control | [5] 107 % of control | [6] 98 % of control | [7] 98 % of control

CC(=O)Nc1ccc(NC(=O)c2ccc(F)cc2)cc1
inactive: dose: 100.0 mg/kg/injection, schedule: Q01DX009 (ip), vehicle: gum acacia 91 % of control | dose: 200.0 mg/kg/injection, schedule: Q01DX009 (ip), vehicle: gum acacia 89 % of control | dose: 400.0 mg/kg/injection, schedule: Q01DX009 (ip), vehicle: gum acacia 102 % of control

CCc1ccccc1NC(=O)Oc1ccc(SC)cc1
inactive: [8] 102 % of control | [9] 97 % of control and 99 % of control | dose: 100.0 mg/kg/injection, schedule: Q04DX002 (ip), vehicle: saline with Tween-80 93 % of control and 94 % of control | [10] 98 % of control | [11] 97 % of control and 89 % of control | dose: 200.0 mg/kg/injection, schedule: Q04DX002 (ip), vehicle: saline with Tween-80 96 % of control and 97 % of control | [12] 93 % of control | dose: 400.0 mg/kg/injection, schedule: Q04DX002 (ip), vehicle: saline with Tween-80 96 % of control and 107 % of control | [13] 90 % of control

NC(=S)c1n[nH]nc1N
inactive: dose: 50.0 mg/kg/injection, schedule: Q01DX001 (ip), vehicle: saline 104 % of control | [14] 100 % of control | [15] 100 % of control

CC(=O)n1c2c(n(C(C)=O)c1=O)CCCC2
inactive: [8] 102 % of control | [10] 98 % of control | [12] 102 % of control

NC(C1SCCS1)C(O)C(O)C(O)CO (configuration not stated)
inactive: [16] 98 % of control | [17] 91 % of control | [18] 96 % of control

CN(CC(C)(C)C(O)c1ccccc1)C(=O)c1ccccc1 (configuration not stated)
inactive: dose: 100.0 mg/kg/injection, schedule: Q04DX003 (ip), vehicle: saline 102 % of control | dose: 200.0 mg/kg/injection, schedule: Q04DX003 (ip), vehicle: saline 100 % of control | dose: 400.0 mg/kg/injection, schedule: Q04DX003 (ip), vehicle: saline 96 % of control

O=[N+]([O-])c1cc(Cl)cc2c1-c1ccc(Cl)cc1C2
inactive: [3] 98 % of control | [5] 98 % of control | [7] 98 % of control

CCN(CC)C(=O)CS(=O)(=O)c1ccc(N)cc1
inactive: [19] 102 % of control | [20] 97 % of control | [13] 100 % of control

CCC(Cl)COP(=O)(OCC(Cl)CC)C(CC)CCl (configuration not stated)
inactive: [21] 93 % of control | dose: 100.0 mg/kg/injection, schedule: Q01DX009 (ip), vehicle: carboxymethylcellulose (CMC) 98 % of control and 91 % of control | dose: 100.0 mg/kg/injection, schedule: Q04DX002 (ip), vehicle: carboxymethylcellulose (CMC) 94 % of control and 95 % of control | dose: 100.0 mg/kg/injection, schedule: Q04DX003 (ip), vehicle: carboxymethylcellulose (CMC) 101 % of control | [22] 96 % of control | dose: 200.0 mg/kg/injection, schedule: Q01DX009 (ip), vehicle: carboxymethylcellulose (CMC) 94 % of control and 103 % of control | dose: 200.0 mg/kg/injection, schedule: Q04DX002 (ip), vehicle: carboxymethylcellulose (CMC) 95 % of control and 102 % of control | dose: 200.0 mg/kg/injection, schedule: Q04DX003 (ip), vehicle: carboxymethylcellulose (CMC) 96 % of control | [23] 96 % of control | dose: 400.0 mg/kg/injection, schedule: Q01DX009 (ip), vehicle: carboxymethylcellulose (CMC) 105 % of control and 106 % of control | dose: 400.0 mg/kg/injection, schedule: Q04DX002 (ip), vehicle: carboxymethylcellulose (CMC) 94 % of control and 95 % of control | dose: 400.0 mg/kg/injection, schedule: Q04DX003 (ip), vehicle: carboxymethylcellulose (CMC) 98 % of control

c1csc(-c2nc3ccccc3s2)c1
inactive: [9] 98 % of control | [19] 101 % of control | [11] 100 % of control | [20] 98 % of control | dose: 400.0 mg/kg/injection, schedule: Q01DX009 (ip), vehicle: saline with Tween-80 94 % of control | [13] 93 % of control

O=C(NC/C=C/Br)NC1CCCc2ccccc21 (configuration not stated)
inactive: dose: 100.0 mg/kg/injection, schedule: Q01DX009 (ip), vehicle: other 106 % of control | dose: 200.0 mg/kg/injection, schedule: Q01DX009 (ip), vehicle: other 110 % of control | dose: 400.0 mg/kg/injection, schedule: Q01DX009 (ip), vehicle: other 100 % of control

Cc1ccc2[nH]c3c(C)c4ccncc4c(C)c3c2c1
inactive: dose: 12.5 mg/kg/injection, schedule: Q01DX Z (ip), vehicle: saline 103 % of control | dose: 25.0 mg/kg/injection, schedule: Q01DX Z (ip), vehicle: saline 97 % of control | dose: 50.0 mg/kg/injection, schedule: Q01DX Z (ip), vehicle: saline 111 % of control | dose: 75.0 mg/kg/injection, schedule: Q01DX Z (ip), vehicle: saline 102 % of control | [14] 105 % of control | dose: 100.0 mg/kg/injection, schedule: Q01DX Z (ip), vehicle: saline 97 % of control and 107 % of control | [1] 100 % of control | [15] 98 % of control | dose: 225.0 mg/kg/injection, schedule: Q01DX Z (ip), vehicle: saline 105 % of control | dose: 340.0 mg/kg/injection, schedule: Q01DX Z (ip), vehicle: saline 102 % of control | dose: 400.0 mg/kg/injection, schedule: Q01DX001 (ip), vehicle: saline 100 % of control

CCOC(=O)c1ccc(OC(=O)Nc2ccc(Cl)cc2OC)cc1
inactive: [16] 87 % of control | [17] 100 % of control

COc1ccc(C(=O)NC(=S)Nc2ccc(I)cc2)cc1
inactive: [2] 98 % of control | [3] 89 % of control | [4] 98 % of control | [5] 89 % of control | [6] 91 % of control | [7] 94 % of control

COc1ccc(Cl)cc1NS(=O)(=O)c1ccc(Cl)cc1[N+](=O)[O-]
inactive: [16] 96 % of control | [17] 94 % of control | [18] 100 % of control

Cc1ccc(S(=O)(=O)N(C)C)cc1N
inactive: dose: 50.0 mg/kg/injection, schedule: Q01DX009 (ip), vehicle: saline with Tween-80 105 % of control | [9] 98 % of control | [19] 107 % of control | [11] 96 % of control | [20] 97 % of control | [13] 102 % of control

O=P(O)(O)O
inactive: dose: 75.0 mg/kg/injection, schedule: Q04DX003 (ip), vehicle: saline 93 % of control | dose: 150.0 mg/kg/injection, schedule: Q04DX003 (ip), vehicle: saline 98 % of control | dose: 300.0 mg/kg/injection, schedule: Q04DX003 (ip), vehicle: saline 103 % of control

Cc1ccc(S(=O)(=O)OCC2OCOC2C2OCOC2COS(=O)(=O)c2ccc(C)cc2)cc1 (configuration not stated)
inactive: dose: 56.25 mg/kg/injection, schedule: Q01DX009 (ip), vehicle: carboxymethylcellulose (CMC) 95 % of control | [21] 95 % of control | dose: 112.5 mg/kg/injection, schedule: Q01DX009 (ip), vehicle: carboxymethylcellulose (CMC) 89 % of control | [22] 96 % of control | dose: 225.0 mg/kg/injection, schedule: Q01DX009 (ip), vehicle: carboxymethylcellulose (CMC) 87 % of control | [23] 90 % of control
